Laboratory results from ChEMBL document CHEMBL5260856, “Design, synthesis and biological evaluation of pyrazolo[3,4-b]pyridine derivatives as TRK inhibitors” (RSC Med Chem, 2023).

Experiments:
[1] = molecular target: High affinity nerve growth factor receptor (Homo sapiens, UniProt P04629); assay: Inhibition of TRKA (unknown origin) using TK as substrate in presence of ATP incubated for 30 mins by HTRF KinEASE assay
[2] = molecular target: Serine/threonine-protein kinase PAK 4 (Homo sapiens, UniProt O96013); assay: Inhibition of PAK4 (unknown origin)
Sequence of Serine/threonine-protein kinase PAK 4 (O96013 whole entry): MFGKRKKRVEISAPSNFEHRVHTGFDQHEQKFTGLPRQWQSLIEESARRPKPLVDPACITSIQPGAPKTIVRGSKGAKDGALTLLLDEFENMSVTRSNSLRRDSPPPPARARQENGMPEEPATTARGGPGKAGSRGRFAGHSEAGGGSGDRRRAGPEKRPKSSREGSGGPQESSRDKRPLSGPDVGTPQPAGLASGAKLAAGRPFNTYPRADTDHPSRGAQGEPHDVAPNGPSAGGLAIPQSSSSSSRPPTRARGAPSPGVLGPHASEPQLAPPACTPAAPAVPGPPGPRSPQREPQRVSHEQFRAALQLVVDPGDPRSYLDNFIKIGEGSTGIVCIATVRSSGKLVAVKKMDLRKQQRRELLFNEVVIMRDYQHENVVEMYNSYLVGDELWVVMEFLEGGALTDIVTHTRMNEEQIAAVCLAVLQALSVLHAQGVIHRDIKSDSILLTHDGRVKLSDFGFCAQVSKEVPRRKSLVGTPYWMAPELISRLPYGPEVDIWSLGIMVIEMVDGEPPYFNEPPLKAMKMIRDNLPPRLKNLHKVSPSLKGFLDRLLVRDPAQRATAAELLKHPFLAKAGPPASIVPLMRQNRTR

[3] = molecular target: T1, Serine/threonine-protein kinase PLK4 (Homo sapiens, UniProt O00444); assay: Inhibition of PLK4 (unknown origin)
T1 sequence (O00444 whole entry): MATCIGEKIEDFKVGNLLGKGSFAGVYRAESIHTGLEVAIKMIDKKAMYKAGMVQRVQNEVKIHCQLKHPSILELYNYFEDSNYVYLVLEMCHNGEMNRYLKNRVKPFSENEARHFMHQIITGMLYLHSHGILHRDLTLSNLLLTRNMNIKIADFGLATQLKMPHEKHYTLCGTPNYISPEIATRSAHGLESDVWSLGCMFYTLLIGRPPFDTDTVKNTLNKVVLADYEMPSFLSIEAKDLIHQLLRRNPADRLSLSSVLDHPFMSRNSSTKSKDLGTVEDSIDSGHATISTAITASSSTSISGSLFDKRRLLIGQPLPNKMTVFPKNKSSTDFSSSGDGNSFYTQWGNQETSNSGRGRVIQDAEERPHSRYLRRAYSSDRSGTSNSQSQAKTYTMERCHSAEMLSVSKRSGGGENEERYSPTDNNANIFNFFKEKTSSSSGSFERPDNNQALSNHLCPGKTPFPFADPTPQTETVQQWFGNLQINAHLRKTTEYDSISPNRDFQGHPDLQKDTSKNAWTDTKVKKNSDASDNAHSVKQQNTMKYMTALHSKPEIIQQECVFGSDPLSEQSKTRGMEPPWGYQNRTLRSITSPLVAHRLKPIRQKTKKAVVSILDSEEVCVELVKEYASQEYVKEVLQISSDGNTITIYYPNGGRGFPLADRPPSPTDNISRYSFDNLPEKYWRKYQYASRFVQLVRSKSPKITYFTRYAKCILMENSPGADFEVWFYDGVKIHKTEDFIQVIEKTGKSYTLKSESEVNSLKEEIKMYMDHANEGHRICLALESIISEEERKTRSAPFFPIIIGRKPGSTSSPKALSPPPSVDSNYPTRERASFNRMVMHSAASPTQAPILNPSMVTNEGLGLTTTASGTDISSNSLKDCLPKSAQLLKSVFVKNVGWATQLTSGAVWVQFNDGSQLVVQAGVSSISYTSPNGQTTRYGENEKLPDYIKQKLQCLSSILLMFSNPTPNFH

Focal adhesion kinase 1 = Focal adhesion kinase 1 (Homo sapiens, UniProt Q05397); assay: Inhibition of FAK (unknown origin)
Sequence of Focal adhesion kinase 1 (Q05397 whole entry): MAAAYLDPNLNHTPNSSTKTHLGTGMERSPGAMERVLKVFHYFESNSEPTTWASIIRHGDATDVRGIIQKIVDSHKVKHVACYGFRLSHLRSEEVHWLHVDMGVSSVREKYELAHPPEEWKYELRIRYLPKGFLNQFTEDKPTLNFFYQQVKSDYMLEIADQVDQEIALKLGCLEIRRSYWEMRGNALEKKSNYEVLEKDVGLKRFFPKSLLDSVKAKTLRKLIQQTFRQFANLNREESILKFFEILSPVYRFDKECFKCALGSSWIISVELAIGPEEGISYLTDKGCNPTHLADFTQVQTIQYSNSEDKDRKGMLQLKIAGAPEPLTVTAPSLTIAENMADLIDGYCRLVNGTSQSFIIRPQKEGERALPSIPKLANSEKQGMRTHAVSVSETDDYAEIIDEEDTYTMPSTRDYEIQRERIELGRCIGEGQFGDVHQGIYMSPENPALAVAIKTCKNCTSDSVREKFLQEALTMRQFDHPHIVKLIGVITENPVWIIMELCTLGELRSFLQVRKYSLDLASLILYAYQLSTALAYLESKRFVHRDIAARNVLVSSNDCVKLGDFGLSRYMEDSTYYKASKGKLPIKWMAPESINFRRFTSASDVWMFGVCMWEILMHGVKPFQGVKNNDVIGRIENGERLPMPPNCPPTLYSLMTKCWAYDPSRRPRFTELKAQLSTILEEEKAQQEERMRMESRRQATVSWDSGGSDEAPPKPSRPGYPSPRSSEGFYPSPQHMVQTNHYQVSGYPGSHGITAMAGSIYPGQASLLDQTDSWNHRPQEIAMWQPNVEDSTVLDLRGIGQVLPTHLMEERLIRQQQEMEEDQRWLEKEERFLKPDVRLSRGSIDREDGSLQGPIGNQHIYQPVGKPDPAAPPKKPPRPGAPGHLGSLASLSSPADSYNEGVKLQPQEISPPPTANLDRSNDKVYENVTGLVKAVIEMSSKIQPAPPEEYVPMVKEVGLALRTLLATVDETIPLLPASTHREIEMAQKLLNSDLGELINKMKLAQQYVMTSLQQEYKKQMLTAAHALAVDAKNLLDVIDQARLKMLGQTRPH

[4] = Inhibition of tyrosine kinase (unknown origin); parameters: species or system Homo sapiens
MCF7 = assay: Antiproliferative activity against human MCF7 cells assessed as cell growth inhibition incubated for 72 hrs by CCK-8 assay; format: functional, cell-based; conditions: MCF7, 72 h
KM12 = assay: Antiproliferative activity against human KM12 cells assessed as cell growth inhibition incubated for 72 hrs by CCK-8 assay; format: functional, cell-based; conditions: KM12, 72 h
[5] = Stability in human plasma assessed as parent compound remaining at 100 uM and measured after 30 mins by LC-MS/MS analysis; format: ADME, cell-free; conditions: read-out: Stability
[6] = Stability in human plasma assessed as parent compound remaining at 100 uM and measured after 10 mins by LC-MS/MS analysis; format: ADME, cell-free; conditions: read-out: Stability
[7] = Stability in human plasma assessed as parent compound remaining at 100 uM and measured after 0 mins by LC-MS/MS analysis; format: ADME, cell-free; conditions: read-out: Stability
CYP3A4 = CYP3A4 (Homo sapiens, UniProt P08684); assay: Inhibition of CYP3A4 in human liver microsomes using midazolam as substrate at 10 uM preincubated for 10 mins followed by NADPH addition and measured after 15 mins by LC-MS/MS analysis; format: ADME, Microsome; conditions: probe midazolam, time 25 min
Sequence of CYP3A4 (P08684 whole entry): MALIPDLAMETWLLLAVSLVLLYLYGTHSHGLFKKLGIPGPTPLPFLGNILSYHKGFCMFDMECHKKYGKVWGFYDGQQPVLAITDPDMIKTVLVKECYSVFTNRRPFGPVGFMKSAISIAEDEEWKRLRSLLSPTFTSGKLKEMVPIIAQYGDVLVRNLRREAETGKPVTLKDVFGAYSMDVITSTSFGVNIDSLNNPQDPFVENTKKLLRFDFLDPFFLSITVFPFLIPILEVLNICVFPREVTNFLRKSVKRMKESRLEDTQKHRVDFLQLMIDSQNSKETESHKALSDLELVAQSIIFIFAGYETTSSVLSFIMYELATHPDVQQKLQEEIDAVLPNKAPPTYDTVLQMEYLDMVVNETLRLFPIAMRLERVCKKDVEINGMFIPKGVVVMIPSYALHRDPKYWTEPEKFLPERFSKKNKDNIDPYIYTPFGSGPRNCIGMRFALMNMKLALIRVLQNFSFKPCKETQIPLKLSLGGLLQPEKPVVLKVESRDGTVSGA

[8] = Stability in human plasma assessed as half life at 100 uM and measured after 120 mins by LC-MS/MS analysis; format: ADME, cell-free
CYP2D6 = CYP2D6 (Homo sapiens, UniProt P10635); assay: Inhibition of CYP2D6 in human liver microsomes using dextromethorphan as substrate at 10 uM preincubated for 10 mins followed by NADPH addition and measured after 15 mins by LC-MS/MS analysis; format: ADME, Microsome; conditions: probe dextromethorphan, time 25 min
Sequence of CYP2D6 (P10635 whole entry): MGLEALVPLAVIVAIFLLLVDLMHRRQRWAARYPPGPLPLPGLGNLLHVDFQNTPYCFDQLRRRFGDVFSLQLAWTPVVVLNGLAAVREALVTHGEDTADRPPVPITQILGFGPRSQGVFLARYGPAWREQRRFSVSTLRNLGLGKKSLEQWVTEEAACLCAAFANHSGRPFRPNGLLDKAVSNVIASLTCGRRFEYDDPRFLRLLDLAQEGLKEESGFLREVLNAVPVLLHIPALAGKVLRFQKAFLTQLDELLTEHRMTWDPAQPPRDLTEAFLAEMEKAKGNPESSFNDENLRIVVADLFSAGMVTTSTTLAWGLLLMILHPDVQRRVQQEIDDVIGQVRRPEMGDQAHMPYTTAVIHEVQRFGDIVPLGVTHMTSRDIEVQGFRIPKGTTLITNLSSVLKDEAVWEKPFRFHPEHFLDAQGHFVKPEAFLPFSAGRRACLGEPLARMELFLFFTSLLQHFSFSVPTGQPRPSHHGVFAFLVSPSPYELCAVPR

CYP1A2 = molecular target: T2, CYP1A2 (Homo sapiens, UniProt P05177); assay: Inhibition of CYP1A2 in human liver microsomes using phenacetin as substrate at 10 uM preincubated for 10 mins followed by NADPH addition and measured after 15 mins by LC-MS/MS analysis; format: ADME, Microsome; conditions: probe phenacetin, time 25 min
T2 sequence (P05177 whole entry): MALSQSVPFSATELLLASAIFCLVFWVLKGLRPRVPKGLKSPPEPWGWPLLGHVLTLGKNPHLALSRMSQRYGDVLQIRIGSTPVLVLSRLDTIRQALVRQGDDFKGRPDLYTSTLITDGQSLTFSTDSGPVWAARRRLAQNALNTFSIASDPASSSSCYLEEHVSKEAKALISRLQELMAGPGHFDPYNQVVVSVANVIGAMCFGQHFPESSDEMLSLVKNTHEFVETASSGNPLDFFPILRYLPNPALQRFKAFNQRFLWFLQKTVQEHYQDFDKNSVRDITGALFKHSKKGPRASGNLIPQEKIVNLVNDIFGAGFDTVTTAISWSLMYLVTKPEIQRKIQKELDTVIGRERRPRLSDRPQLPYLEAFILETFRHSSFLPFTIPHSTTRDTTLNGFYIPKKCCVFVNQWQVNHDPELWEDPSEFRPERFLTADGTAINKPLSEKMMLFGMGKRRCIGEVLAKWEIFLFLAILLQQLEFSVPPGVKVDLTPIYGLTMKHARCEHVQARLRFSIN

CYP2C9 = CYP2C9 (Homo sapiens, UniProt P11712); assay: Inhibition of CYP2C9 in human liver microsomes using diclofenac as substrate at 10 uM preincubated for 10 mins followed by NADPH addition and measured after 15 mins by LC-MS/MS analysis; format: ADME, Microsome; conditions: probe diclofenac, time 25 min
Sequence of CYP2C9 (P11712 whole entry): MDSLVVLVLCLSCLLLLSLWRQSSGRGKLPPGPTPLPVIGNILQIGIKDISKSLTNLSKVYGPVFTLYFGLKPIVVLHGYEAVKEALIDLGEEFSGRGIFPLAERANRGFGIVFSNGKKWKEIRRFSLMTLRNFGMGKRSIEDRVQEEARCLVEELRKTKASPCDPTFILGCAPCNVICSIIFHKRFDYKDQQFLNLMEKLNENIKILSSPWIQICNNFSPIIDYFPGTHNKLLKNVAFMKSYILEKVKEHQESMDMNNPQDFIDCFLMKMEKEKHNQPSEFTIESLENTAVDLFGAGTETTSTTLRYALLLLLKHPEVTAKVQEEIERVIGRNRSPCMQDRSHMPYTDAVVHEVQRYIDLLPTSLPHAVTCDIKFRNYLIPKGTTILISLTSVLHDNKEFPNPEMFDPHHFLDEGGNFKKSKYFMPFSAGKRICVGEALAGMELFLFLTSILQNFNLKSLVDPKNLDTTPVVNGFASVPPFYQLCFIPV

[9] = Stability in human plasma assessed as parent compound remaining at 100 uM and measured after 120 mins by LC-MS/MS analysis; format: ADME, cell-free; conditions: read-out: Stability
[10] = Stability in human plasma assessed as parent compound remaining at 100 uM and measured after 60 mins by LC-MS/MS analysis; format: ADME, cell-free; conditions: read-out: Stability
CYP2C19 = CYP2C19 (Homo sapiens, UniProt P33261); assay: Inhibition of CYP2C19 in human liver microsomes using S-mephenytoin as substrate at 10 uM preincubated for 10 mins followed by NADPH addition and measured after 15 mins by LC-MS/MS analysis; format: ADME, Microsome; conditions: probe S-mephenytoin, time 25 min
Sequence of CYP2C19 (P33261 whole entry): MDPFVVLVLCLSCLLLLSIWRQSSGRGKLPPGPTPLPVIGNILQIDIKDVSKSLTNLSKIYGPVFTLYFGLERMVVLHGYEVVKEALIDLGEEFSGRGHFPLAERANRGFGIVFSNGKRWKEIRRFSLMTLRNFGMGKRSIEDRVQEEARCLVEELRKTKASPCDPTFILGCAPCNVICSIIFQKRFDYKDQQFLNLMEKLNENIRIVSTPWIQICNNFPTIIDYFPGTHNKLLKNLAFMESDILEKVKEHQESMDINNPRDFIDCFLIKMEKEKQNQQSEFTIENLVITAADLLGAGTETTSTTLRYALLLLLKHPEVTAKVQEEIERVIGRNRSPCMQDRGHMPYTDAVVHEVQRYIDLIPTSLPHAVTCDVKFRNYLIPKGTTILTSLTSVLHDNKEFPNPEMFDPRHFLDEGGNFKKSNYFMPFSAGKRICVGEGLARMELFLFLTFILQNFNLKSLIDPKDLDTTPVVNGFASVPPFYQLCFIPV

Sequence of High affinity nerve growth factor receptor (P04629 whole entry): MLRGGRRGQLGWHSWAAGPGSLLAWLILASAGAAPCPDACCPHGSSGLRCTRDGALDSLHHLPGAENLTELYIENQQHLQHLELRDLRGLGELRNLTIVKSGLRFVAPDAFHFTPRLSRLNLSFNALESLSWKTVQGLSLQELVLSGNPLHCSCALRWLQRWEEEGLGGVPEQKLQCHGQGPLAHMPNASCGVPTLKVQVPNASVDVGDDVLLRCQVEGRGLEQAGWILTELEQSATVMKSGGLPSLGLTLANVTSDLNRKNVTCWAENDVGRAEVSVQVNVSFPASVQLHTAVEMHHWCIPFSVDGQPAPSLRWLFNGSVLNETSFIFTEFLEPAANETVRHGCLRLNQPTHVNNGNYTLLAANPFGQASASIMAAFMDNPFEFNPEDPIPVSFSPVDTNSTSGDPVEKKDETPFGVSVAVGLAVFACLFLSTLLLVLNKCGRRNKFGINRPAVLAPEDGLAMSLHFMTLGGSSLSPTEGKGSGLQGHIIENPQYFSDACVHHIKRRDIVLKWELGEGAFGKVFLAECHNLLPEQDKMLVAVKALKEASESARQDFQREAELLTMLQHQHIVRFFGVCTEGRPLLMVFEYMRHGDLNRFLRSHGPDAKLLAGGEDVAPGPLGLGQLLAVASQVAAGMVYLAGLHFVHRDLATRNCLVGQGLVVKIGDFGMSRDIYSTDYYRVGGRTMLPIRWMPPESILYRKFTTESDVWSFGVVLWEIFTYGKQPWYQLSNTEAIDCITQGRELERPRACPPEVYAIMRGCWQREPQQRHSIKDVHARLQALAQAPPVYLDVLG

O=C(c1ccc(Nc2n[nH]c3ncc(Cc4cc(F)ccc4F)cc23)cc1)N1CCCC(O)C1 (configuration not stated)
IC50 [1]: 156 nM

NC1CCN(C(=O)c2cccc(Nc3n[nH]c4ncc(Cc5cc(F)ccc5F)cc34)c2)CC1
IC50 [1]: 437 nM

O=C(c1cccc(Nc2n[nH]c3ncc(Cc4cc(F)ccc4F)cc23)c1)N1CCCC(O)C1 (configuration not stated)
IC50 [1]: 205 nM

O=C(c1cccc(Nc2n[nH]c3ncc(Cc4cc(F)cc(F)c4)cc23)c1)N1CCOCC1
IC50 [1]: 700 nM

O=C(c1cccc(-c2n[nH]c3ncc(Cc4cc(F)ccc4F)cc23)c1)N1CCC(O)CC1
IC50 [1]: 254 nM

O=C(c1cccc(-c2n[nH]c3ncc(Cc4cc(F)ccc4F)cc23)c1)N1CCC[C@H](O)C1
IC50 [2]: > 100000 nM
IC50 [3]: 1320 nM
IC50 (Focal adhesion kinase 1): > 100000 nM

O=C(c1cccc(Nc2n[nH]c3ncc(Cc4ccc(F)cc4)cc23)c1)N1CCOCC1
IC50 [1]: 2780 nM

O=C(c1ccc(Nc2n[nH]c3ncc(Cc4cc(F)ccc4F)cc23)cc1)N1CCOCC1
IC50 [1]: 980 nM

O=C(Nc1cnn2ccc(N3CCC[C@@H]3c3cc(F)ccc3F)nc12)N1CC[C@H](O)C1 [LAROTRECTINIB]
IC50 [4]: < 20 nM
IC50 (MCF7): > 40000 nM
IC50 (KM12): 12 nM

CN1CCN(C(=O)c2ccc(Nc3n[nH]c4ncc(Cc5cc(F)ccc5F)cc34)cc2)CC1
IC50 [1]: 389 nM

O=C(c1cccc(Nc2n[nH]c3ncc(Cc4ccc(F)c(F)c4)cc23)c1)N1CCOCC1
IC50 [1]: > 100000 nM

O=C(c1cccc(Nc2n[nH]c3ncc(Cc4cc(F)c(F)c(F)c4)cc23)c1)N1CCOCC1
IC50 [1]: 660 nM

O=C(c1cccc(-c2n[nH]c3ncc(Cc4cc(F)ccc4F)cc23)c1)N1CCC[C@@H](O)C1
IC50 [2]: > 100000 nM
IC50 [3]: 690 nM
IC50 (Focal adhesion kinase 1): > 100000 nM

O=C(c1cccc(Nc2n[nH]c3ncc(Cc4c(F)cccc4F)cc23)c1)N1CCOCC1
IC50 [1]: 838 nM

O=C(c1cccc(Nc2n[nH]c3ncc(Cc4cccc(C(F)(F)F)c4)cc23)c1)N1CCOCC1
IC50 [1]: 16700 nM

O=C(c1ccc(Nc2n[nH]c3ncc(Cc4cc(F)ccc4F)cc23)cc1)N1CCNCC1
IC50 [1]: 409 nM

O=C(c1cccc(Nc2n[nH]c3ncc(Cc4cccc(F)c4F)cc23)c1)N1CCOCC1
IC50 [1]: 1970 nM

O=C(c1cccc(-c2n[nH]c3ncc(Cc4cc(F)ccc4F)cc23)c1)N1CCCC(O)C1 (configuration not stated)
IC50 [2]: > 100000 nM
remaining at 0.5 h, 100 µM [5]: 88%
remaining at 10 min, 100 µM [6]: 104%
remaining at 0 h, 100 µM [7]: 100%
inhibition at 0.25 h, 10 µM (CYP3A4): 0%
half-life at 100 µM [8]: > 4.82 h
inhibition at 0.25 h, 10 µM (CYP2D6): 25.8%
inhibition at 0.25 h, 10 µM (CYP1A2): 16.6%
inhibition at 0.25 h, 10 µM (CYP2C9): 66.6%
remaining at 2 h, 100 µM [9]: 89.1%
remaining at 1 h, 100 µM [10]: 93.6%
IC50 [3]: 1650 nM
inhibition at 0.25 h, 10 µM (CYP2C19): 48.6%
IC50 (Focal adhesion kinase 1): > 100000 nM
